Experimental data: patent US7807686B2, “2-(4-oxo-4H-quinazolin-3-yl)acetamides and their use as vasopressin V3 antagonists” (N.V. Organon, priority 2005, dated 2010)
Structures can show the parent of a compound that is named as a salt. One block for each compound: values may come before it.

Target: T1, human V3 receptor (Homo sapiens, UniProt P47901)
T1 construct: expressed in transfected cells
T1 sequence (P47901 1-424): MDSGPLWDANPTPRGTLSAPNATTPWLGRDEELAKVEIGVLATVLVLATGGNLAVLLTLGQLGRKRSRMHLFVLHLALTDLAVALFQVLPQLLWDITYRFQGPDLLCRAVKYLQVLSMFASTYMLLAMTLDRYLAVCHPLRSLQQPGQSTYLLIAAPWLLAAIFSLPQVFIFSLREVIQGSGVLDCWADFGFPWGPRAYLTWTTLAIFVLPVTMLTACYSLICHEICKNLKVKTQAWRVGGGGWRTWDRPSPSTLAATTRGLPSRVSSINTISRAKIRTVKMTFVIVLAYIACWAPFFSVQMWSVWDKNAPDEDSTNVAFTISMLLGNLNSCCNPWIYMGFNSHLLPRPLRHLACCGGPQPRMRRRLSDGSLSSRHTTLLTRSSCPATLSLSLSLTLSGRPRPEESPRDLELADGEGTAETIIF
Experiment: [3H]AVP binding to CHO cells stably expressing the human V3 receptor
Conditions: Ki from displacement of [3H]AVP (2.5×10^-9 mol.L^-1)
Experimental: Chinese Hamster Ovary (CHO) cells stably expressing the human V3 receptor were incubated to equilibrium with the test compound (at a final assay concentration of 10^−11 mol.L^−1 to 10^−5 mol.L^−1) and [^3H]AVP (at a final assay concentration of 2.5×10^−9 mol.L^−1). […] After washing with ice-cold phosphate buffered saline (PBS), scintillation fluid was added and the plates counted on a Topcount NXT apparatus.
A sigmoidal dose response curve (non-linear regression, variable slope) was plotted as concentration of test compound (mol.L^−1) against percentage specific binding of [^3H]AVP and a Ki value was calculated. Each determination was carried out in triplicate and repeated on at least 3 separate occasions

Ki: 100 to 1000 nM
SMILES: O=C(Cn1c(-c2ccccc2)nc2ccc(OCCCN3CCCCCC3)cc2c1=O)NCC1CC1 [EXAMPLE 4q, 2-[6-(3-Azepan-1-ylpropoxy)-4-oxo-2-phenyl-4H-quinazolin-3-yl]-N-cyclopropylmethylacetamide]

Ki: 100 to 1000 nM
SMILES: C=CCNC(=O)Cn1c(-c2ccccc2)nc2ccc(-c3cccc(CN4CCCCC4)c3)cc2c1=O [EXAMPLE 7x, N-Allyl-2-[4-oxo-2-phenyl-6-(3-piperidin-1-ylmethylphenyl)-4H-quinazolin-3-yl]acetamide]

Ki: 10 to 100 nM
SMILES: COc1cccc(-c2nc3ccc(OC[C@@H](C)CN4CCC4)cc3c(=O)n2CC(=O)NC(C)C)c1 [EXAMPLE 4i, (S)-(+)-2-[6-(3-Azetidin-1-yl-2-methylpropoxy)-2-(3-methoxyphenyl)-4-oxo-4H-quinazolin-3-yl]-N-isopropylacetamide]

Ki: < 10 nM
SMILES: COc1cccc(-c2nc3ccc(-c4cccc(CN5CCOCC5)c4)cc3c(=O)n2CC(=O)NC(C)C)c1 [EXAMPLE 7u, N-Isopropyl-2-[2-(3-methoxyphenyl)-6-(3-morpholin-4-ylmethylphenyl)-4-oxo-4H-quinazolin-3-yl]acetamide]

Ki: 100 to 1000 nM
SMILES: COc1cccc(-c2nc3ccc(OCCC4CCCCN4C)cc3c(=O)n2CC(=O)NC(C)C)c1 (stereo not drawn) [EXAMPLE 12a, N-Isopropyl-2-[2-(3-methoxyphenyl)-6-[2-(1-methylpiperidin-2-yl)ethoxy]-4-oxo-4H-quinazolin-3-yl]acetamide]

Ki: < 10 nM
SMILES: CCCNC(=O)Cn1c(-c2cccc(OC)c2)nc2ccc(OC[C@@H](C)CN3CCCCC3)cc2c1=O [EXAMPLE 4n, (S)-(+)-2-[2-(3-Methoxyphenyl)-6-(2-methyl-3-piperidin-1-ylpropoxy)-4-oxo-4H-quinazolin-3-yl]-N-propylacetamide]

Ki: 100 to 1000 nM
SMILES: COc1cccc(-c2nc3ccc(NCCCN4CCCCC4)cc3c(=O)n2CC(=O)NC(C)C)c1 [EXAMPLE 13a, N-Isopropyl-2-[2-(3-methoxyphenyl)-4-oxo-6-(3-piperidin-1-ylpropylamino)-4H-quinazolin-3-yl]acetamide]

Ki: 10 to 100 nM
SMILES: COc1cccc(-c2nc3ccc(-c4cccc(CN(C)C)n4)cc3c(=O)n2CC(=O)NC(C)C)c1 [EXAMPLE 6b, 2-[6-(6-Dimethylaminomethylpyridin-2-yl)-2-(3-methoxyphenyl)-4-oxo-4H-quinazolin-3-yl]-N-isopropylacetamide]

Ki: 100 to 1000 nM
SMILES: COc1cccc(-c2nc3ccc(OCC4CCCN(C)C4)cc3c(=O)n2CC(=O)NC(C)C)c1 (stereo not drawn) [EXAMPLE 14a, N-Isopropyl-2-[2-(3-methoxyphenyl)-6-(1-methylpiperidin-3-ylmethoxy)-4-oxo-4H-quinazolin-3-yl]acetamide]

Ki: < 10 nM
SMILES: CC(C)NC(=O)Cn1c(-c2cccc(F)c2)nc2ccc(OC[C@@H](C)CN3CCOCC3)cc2c1=O [EXAMPLE 4g, (S)-(+)-2-[2-(3-Fluorophenyl)-6-(2-methyl-3-morpholin-4-ylpropoxy)-4-oxo-4H-quinazolin-3-yl]-N-isopropylacetamide]

Ki: 10 to 100 nM
SMILES: COc1cccc(-c2nc3ccc(/C=C/CCN4CCOCC4)cc3c(=O)n2CC(=O)NC(C)C)c1 [EXAMPLE 10b, N-Isopropyl-2-[2-(3-methoxyphenyl)-6-(4-morpholin-4-ylbut-1-enyl)-4-oxo-4H-quinazolin-3-yl]acetamide]

Ki: 10 to 100 nM
SMILES: COc1cccc(-c2nc3ccc(-c4ccc(CN5CCC5)o4)cc3c(=O)n2CC(=O)NC(C)C)c1 [EXAMPLE 9a, 2-[6-(5-Azetidin-1-ylmethylfuran-2-yl)-2-(3-methoxyphenyl)-4-oxo-4H-quinazolin-3-yl]-N-isopropylacetamide]

Ki: 10 to 100 nM
SMILES: COc1cccc(-c2nc3ccc(CCCCN4CCCC4)cc3c(=O)n2CC(=O)NC(C)C)c1 [EXAMPLE 11b, N-Isopropyl-2-[2-(3-methoxyphenyl)-4-oxo-6-(4-pyrrolidin-1-ylbutyl)-4H-quinazolin-3-yl]acetamide]

Ki: 10 to 100 nM
SMILES: COc1cccc(-c2nc3ccc(-c4cccc(CN(C)CC(C)C)c4)cc3c(=O)n2CC(=O)NC(C)C)c1 [EXAMPLE 7p, 2-[6-{3-[(Isobutylmethylamino)methyl]phenyl}-2-(3-methoxyphenyl)-4-oxo-4H-quinazolin-3-yl]-N-isopropylacetamide]

Ki: < 10 nM
SMILES: COc1cccc(-c2nc3ccc(-c4cc(CN(C)C)ccc4F)cc3c(=O)n2CC(=O)NC(C)C)c1 [EXAMPLE 6a, 2-[6-(5-Dimethylaminomethyl-2-fluorophenyl)-2-(3-methoxyphenyl)-4-oxo-4H-quinazolin-3-yl]-N-isopropylacetamide]

The remaining lines, values behind:

SMILES: CC(C)NC(=O)Cn1c(-c2cc(F)c(F)c(F)c2)nc2ccc(OCCCN3CCCCC3)cc2c1=O [EXAMPLE 1f, N-Isopropyl-2-[4-oxo-6-(3-piperidin-1-ylpropoxy)-2-(3,4,5-trifluorophenyl)-4H-quinazolin-3-yl]acetamide]
Ki: 10 to 100 nM

SMILES: CC(C)(C)NC(=O)Cn1c(-c2cccc(Cl)c2)nc2ccc(OCCCN3CCCCC3)cc2c1=O [EXAMPLE 2f, N-tert-Butyl-2-[2-(3-chlorophenyl)-4-oxo-6-(3-piperidin-1-ylpropoxy)-4H-quinazolin-3-yl]acetamide]
Ki: < 10 nM

SMILES: COc1cccc(-c2nc3ccc(OCCCN4CCCCC4)cc3c(=O)n2CC(=O)NC(C)C)n1 [EXAMPLE 1h, N-Isopropyl-2-[2-(6-methoxypyridin-2-yl)-4-oxo-6-(3-piperidin-1-ylpropoxy)-4H-quinazolin-3-yl]acetamide]
Ki: < 10 nM

SMILES: COc1ccc(CN(CCCN2CCCCC2)c2ccc3nc(-c4cccc(OC)c4)n(CC(=O)NC(C)C)c(=O)c3c2)cc1 [EXAMPLE 3r, N-Isopropyl-2-[6-[(4-methoxybenzyl)-(3-piperidin-1-ylpropyl)amino]-2-(3-methoxyphenyl)-4-oxo-4H-quinazolin-3-yl]acetamide]
Ki: 10 to 100 nM

SMILES: COc1cc(OC)cc(-c2nc3ccc(OCCCN4CCOCC4)cc3c(=O)n2CC(=O)NCC2CC2)c1 [EXAMPLE 3k, N-Cyclopropylmethyl-2-[2-(3,5-dimethoxyphenyl)-6-(3-morpholin-4-ylpropoxy)-4-oxo-4H-quinazolin-3-yl]acetamide]
Ki: < 10 nM

SMILES: COc1cc(-c2nc3ccc(OCCCN4CCC(O)CC4)cc3c(=O)n2CC(=O)NC(C)C)ccc1F [EXAMPLE 2p, 2-{2-(4-Fluoro-3-methoxyphenyl)-6-[3-(4-hydroxypiperidin-1-yl)propoxy]-4-oxo-4H-quinazolin-3-yl}-N-isopropylacetamide]
Ki: < 10 nM

SMILES: CC(C)NC(=O)Cn1c(-c2cccc(Cl)c2)nc2ccc(OCCCN3CCCCC3)cc2c1=O [EXAMPLE 3a, 2-[2-(3-Chlorophenyl)-4-oxo-6-(3-piperidin-1-ylpropoxy)-4H-quinazolin-3-yl]-N-isopropylacetamide hydrochloride]
Ki: < 10 nM

SMILES: COc1cccc(-c2nc3cc(C)c(OCCCN4CCCCC4)cc3c(=O)n2CC(=O)NC(C)C)c1 [EXAMPLE 2w, N-Isopropyl-2-[2-(3-methoxyphenyl)-7-methyl-4-oxo-6-(3-piperidin-1-ylpropoxy)-4H-quinazolin-3-yl]acetamide]
Ki: < 10 nM

SMILES: COc1cccc(-c2nc3ccc(SCCCN4CCCCC4)cc3c(=O)n2CC(=O)NC(C)C)c1 [EXAMPLE 3t, N-Isopropyl-2-[2-(3-methoxyphenyl)-4-oxo-6-(3-piperidin-1-ylpropylsulfanyl)-4H-quinazolin-3-yl]acetamide]
Ki: 10 to 100 nM
